Test results taken from article PMC3610419, “A Randomized, Double-Blind Placebo Controlled Trial of Balapiravir, a Polymerase Inhibitor, in Adult Dengue Patients” (The Journal of Infectious Diseases, 2012).
Marks after values point to notes of the source that are not given here.

Legend:
[1] = test system: NS1; experiment: NS1 antigenemia (Platelia NS1 assay) in adult dengue patients, randomized placebo-controlled trial; type: in vivo, human; conditions: Kaplan-Meier estimate
Description: (§1) Randomization to treatment group was by computer-generated randomization sequencing in blocks of 2. Balapiravir was formulated in a 500-mg film-coated tablet. The placebo consisted of an identical looking tablet containing excipient only. All balapiravir and placebo tablets were provided by F. Hoffmann-La Roche. Patients in cohort 1 (n = 20) received 1500 mg of balapiravir or an identical placebo orally every 12 hours for 5 days (10 doses). The decision to dose escalate (to 3000 mg) was made after review of the partially unblinded group mean clinical and laboratory data acquired from patients in cohort 1. Patients in cohort 2 (n = 44) received 3000 mg of balapiravir or placebo orally twice a day for 5 days (10 doses).

[2] = Safety and tolerability, adverse events in adult dengue patients; conditions: for safety and tolerability: 1500 mg or 3000 mg orally twice daily for 5 days, adult dengue patients
Description: as §1
Eligible patients remained in clinic during a 7-day in-patient period then returned for follow-up visits on study days 14, 28, and 84. During the inpatient period, patient vital signs were assessed every 6 hours and routine laboratory investigations were performed daily or as clinically indicated. Safety and tolerability were monitored at regular intervals and included physical examinations, vital signs, electrocardiograms, clinical laboratory assessments, incidence of clinical adverse events, and concomitant medications. Any clinically significant abnormal laboratory test results were followed up until resolved or stabilized. A quality of life assessment, using a questionnaire and a visual analog scale, was implemented on study days 1, 3, 5, 7, 14, 28, and 84.

[3] = Predefined clinical and routine laboratory endpoints in adult dengue patients; type: in vivo, human; conditions: for Maximum percentage increase of hematocrit level, Mean / Maximum percentage increase of hematocrit level, Median (IQR): from baseline; for Minimum quality of life score, Mean / Minimum quality of life score, Median (IQR): visual analogue scale 0-100
From the text: Key viremia endpoints of the study were as follows: area under the log-transformed viremia curve (AUC) from first dose to the end of study day 7 (study hour 168), calculated on the basis of the trapezoidal rule with values below the limit of detection replaced by half of the detection limit; time to first viremia level of <1000 copies/mL until study day 7; and time to the first negative NS1 test result. Other predefined key endpoints included fever clearance time, defined as the time from the start of treatment to the start of the first 48-hour period during which axillary temperature remained <37.5°C; maximum hematocrit level; maximum percentage increase of hematocrit level from baseline; platelet count nadir; and lowest recorded quality of life score.
Time to event endpoints were compared between treatment groups on the basis of Cox regression and continuous endpoints on the basis of linear regression. Analyses were adjusted for the predose value of the respective endpoint; viremia and NS1 endpoints were additionally adjusted for dengue serotype. For all endpoints, we report P values of a trend test for a dose-response relationship with treatment entered as a continuous variable with values 0 (placebo), 1 (low-dose), and 2 (high-dose) into the regression model.

[4] = High-dose (3000 mg twice a day, 5 days), n = 22
[5] = Low-dose (1500 mg twice a day, 5 days), n = 10
[6] = High dose (3000 mg twice a day, 5 days), n=22
[7] = Low dose (1500 mg twice a day, 5 days), n=10

CC(C)C(=O)OC[C@@]1(N=[N+]=[N-])O[C@@H](n2ccc(N)nc2=O)[C@H](OC(=O)C(C)C)[C@@H]1OC(=O)C(C)C [Balapiravir]
Median time to first negative NS1 test result (IQR) [1, 4]: 4 (3–6) d | Median time to first negative NS1 test result (IQR) [1, 5]: 3 (3–14) d | reported serious adverse events (SAEs) ([2]; 1500 mg balapiravir arm): 1 | safety and tolerability [2]: safe and well-tolerated | safety and tolerability ([2]; listed as balapiravir): well tolerated | reported serious adverse events (SAEs) ([2]; 3000 mg balapiravir arm): 1 | ABDOMINAL PAIN [2, 6]: 3 (13.64%) no.pt. (%) | ABNORMAL INR [2, 6]: 1 (4.55%) no.pt. (%) | ALTERATION OF TASTE [2, 6]: 0 (0%) no.pt. (%) | ANOREXIA [2, 6]: 1 (4.55%) no.pt. (%) | ANY EVENT - no (%) patients with at least one event [2, 6]: 19 (86.36%) no.pt. (%) | ANY EVENT - no of events [2, 6]: 65 | BRUISING [2, 6]: 2 (9.09%) no.pt. (%) | COUGH [2, 6]: 4 (18.18%) no.pt. (%) | DECREASE OF FIBRINOGEN [2, 6]: 4 (18.18%) no.pt. (%) | DIARRHOEA [2, 6]: 8 (36.36%) no.pt. (%) | DYSPEPSIA [2, 6]: 1 (4.55%) no.pt. (%) | ELEVATED ALT [2, 6]: 0 (0%) no.pt. (%) | ELEVATED AST [2, 6]: 0 (0%) no.pt. (%) | EPISTAXIS [2, 6]: 0 (0%) no.pt. (%) | FLATULENCE [2, 6]: 0 (0%) no.pt. (%) | GUM BLEEDING [2, 6]: 6 (27.27%) no.pt. (%) | HEADACHE [2, 6]: 5 (22.73%) no.pt. (%) | HEMATEMESIS [2, 6]: 0 (0%) no.pt. (%) | HEMATURIA [2, 6]: 1 (4.55%) no.pt. (%) | HEMOPTYSIS [2, 6]: 0 (0%) no.pt. (%) | HYPOALBUMINEMIA [2, 6]: 1 (4.55%) no.pt. (%) | ITCHY RASH ON CHEEK, AND FOREHEAD [2, 6]: 0 (0%) no.pt. (%) | NARROW PULSE PRESSURE [2, 6]: 0 (0%) no.pt. (%) | NAUSEA [2, 6]: 2 (9.09%) no.pt. (%) | PETECHIAE [2, 6]: 6 (27.27%) no.pt. (%) | PROLONGED APTT [2, 6]: 7 (31.82%) no.pt. (%) | PROTEINURIA [2, 6]: 0 (0%) no.pt. (%) | PRURITIS [2, 6]: 0 (0%) no.pt. (%) | RETINAL INJURY [2, 6]: 0 (0%) no.pt. (%) | SORE THROAT [2, 6]: 0 (0%) no.pt. (%) | VERTIGO [2, 6]: 0 (0%) no.pt. (%) | VOMIT [2, 6]: 2 (9.09%) no.pt. (%) | THROMBOCYTOPENIA ([2]; High dose (3000 mg twice a day, 5 days), n=22, one patient in this group had a SAE): 11 (50%) ^a no.pt. (%) | ABDOMINAL PAIN [2, 7]: 0 (0%) no.pt. (%) | ABNORMAL INR [2, 7]: 0 (0%) no.pt. (%) | ALTERATION OF TASTE [2, 7]: 0 (0%) no.pt. (%) | ANOREXIA [2, 7]: 2 (20%) no.pt. (%) | ANY EVENT - no (%) patients with at least one event [2, 7]: 8 (80%) no.pt. (%) | ANY EVENT - no of events [2, 7]: 30 | BRUISING [2, 7]: 0 (0%) no.pt. (%) | COUGH [2, 7]: 0 (0%) no.pt. (%) | DECREASE OF FIBRINOGEN [2, 7]: 1 (10%) no.pt. (%) | DIARRHOEA [2, 7]: 4 (40%) no.pt. (%) | DYSPEPSIA [2, 7]: 1 (10%) no.pt. (%) | ELEVATED ALT [2, 7]: 0 (0%) no.pt. (%) | ELEVATED AST [2, 7]: 0 (0%) no.pt. (%) | EPISTAXIS [2, 7]: 0 (0%) no.pt. (%) | FLATULENCE [2, 7]: 0 (0%) no.pt. (%) | GUM BLEEDING [2, 7]: 0 (0%) no.pt. (%) | HEADACHE [2, 7]: 2 (20%) no.pt. (%) | HEMATEMESIS [2, 7]: 0 (0%) no.pt. (%) | HEMATURIA [2, 7]: 0 (0%) no.pt. (%) | HEMOPTYSIS [2, 7]: 0 (0%) no.pt. (%) | HYPOALBUMINEMIA [2, 7]: 1 (10%) no.pt. (%) | ITCHY RASH ON CHEEK, AND FOREHEAD [2, 7]: 1 (10%) no.pt. (%) | NAUSEA [2, 7]: 0 (0%) no.pt. (%) | PETECHIAE [2, 7]: 4 (40%) no.pt. (%) | PROLONGED APTT [2, 7]: 2 (20%) no.pt. (%) | PROTEINURIA [2, 7]: 1 (10%) no.pt. (%) | PRURITIS [2, 7]: 1 (10%) no.pt. (%) | RETINAL INJURY [2, 7]: 0 (0%) no.pt. (%) | SORE THROAT [2, 7]: 0 (0%) no.pt. (%) | THROMBOCYTOPENIA [2, 7]: 4 (40%) no.pt. (%) | VERTIGO [2, 7]: 1 (10%) no.pt. (%) | VOMIT [2, 7]: 4 (40%) no.pt. (%) | NARROW PULSE PRESSURE ([2]; Low dose (1500 mg twice a day, 5 days), n=10, one patient in this group had a SAE): 1 (10%) ^a no.pt. (%) | effect on fever clearance time, clinical signs and routine laboratory findings ([3]; 1500 mg or 3000 mg twice daily for 5 days versus placebo): did not affect | Maximum ALT level, Mean [3, 4]: 75.2 IU/L | Maximum ALT level, Median (IQR) [3, 4]: 68.5 (33.3–104.5) IU/L | Maximum AST level, Mean [3, 4]: 118.4 IU/L | Maximum AST level, Median (IQR) [3, 4]: 108.0 (45.0–151.5) IU/L | Maximum INR, Mean [3, 4]: 1.27 | Maximum INR, Median (IQR) [3, 4]: 1.17 (1.09–1.22) | Maximum aPTT, Mean [3, 4]: 41.8 s | Maximum aPTT, Median (IQR) [3, 4]: 41.8 (38.3–44.1) s | Maximum recorded hematocrit level, Mean [3, 4]: 44.6% | Maximum recorded hematocrit level, Median (IQR) [3, 4]: 45.1 (41.8–46.1) % | Median fever clearance time (IQR) [3, 4]: 3 (2–4) d | Minimum fibrinogen level, Mean [3, 4]: 1.88 g/L | Minimum fibrinogen level, Median (IQR) [3, 4]: 1.86 (1.60–2.03) g/L | Minimum platelet count, Mean [3, 4]: 54.4 10^9 cells/L | Minimum platelet count, Median (IQR) [3, 4]: 52 (25.5–64.8) 10^9 cells/L | Maximum percentage increase of hematocrit level, Mean [3, 4]: 2.6% | Maximum percentage increase of hematocrit level, Median (IQR) [3, 4]: 1.2 (−4.1–9.2) % | Minimum quality of life score, Mean [3, 4]: 74.45 | Minimum quality of life score, Median (IQR) [3, 4]: 77.5 (67.8–82.0) | Maximum ALT level, Mean [3, 5]: 96.3 IU/L | Maximum ALT level, Median (IQR) [3, 5]: 97.5 (58.0–128.8) IU/L | Maximum AST level, Mean [3, 5]: 143.6 IU/L | Maximum AST level, Median (IQR) [3, 5]: 157.5 (116.5–171.5) IU/L | Maximum INR, Mean [3, 5]: 1.17 | Maximum INR, Median (IQR) [3, 5]: 1.16 (1.05–1.26) | Maximum aPTT, Mean [3, 5]: 41.3 s | Maximum aPTT, Median (IQR) [3, 5]: 40.6 (39.6–43.1) s | Maximum recorded hematocrit level, Mean [3, 5]: 46.7% | Maximum recorded hematocrit level, Median (IQR) [3, 5]: 45.8 (43.8–49.3) % | Median fever clearance time (IQR) [3, 5]: 3 (2–4) d | Minimum fibrinogen level, Mean [3, 5]: 1.94 g/L | Minimum fibrinogen level, Median (IQR) [3, 5]: 2.08 (1.68–2.25) g/L | Minimum platelet count, Mean [3, 5]: 26.3 10^9 cells/L | Minimum platelet count, Median (IQR) [3, 5]: 23 (16.5–33.0) 10^9 cells/L | Maximum percentage increase of hematocrit level, Mean [3, 5]: 11.5% | Maximum percentage increase of hematocrit level, Median (IQR) [3, 5]: 11.8 (3.1–15.3) % | Minimum quality of life score, Mean [3, 5]: 78.3 | Minimum quality of life score, Median (IQR) [3, 5]: 77.0 (69.8–89.0)
